According to PubChem BioAssay AID2060606 (Molecular Pharmacology Branch, DTP, NCI, 2025):
pIC50: −log10 of the molar value. Where “and” joins values, the source holds several entries; their conditions need not be identical. Identical values can stand only once.

System: 922993-354-T-J3-PDC complex spheroids, viability, % test/control
Assay: Anticancer human tumor 922993-354-T-J3-PDC patient-derived endometrial carcinoma cell line growth inhibition [CLK]
Conditions: for viability, T/C: stronger effect = lower value
Method in brief: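 Multi-cell-type spheroids combined patient-derived tumor cells with HUVEC endothelial cells and human mesenchymal stem cells. Paired agents were dosed in half-log steps down from about clinical Cmax, or from 10 microM where Cmax was unknown.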

[1] = curve of first compound, second compound 0.0316 µM
[2] = curve of first compound, second compound 0.1 µM
[3] = curve of first compound, second compound 0.316 µM
[4] = curve of first compound, second compound 1 µM
[5] = curve of first compound, second compound 3.16 µM
[6] = curve of first compound, second compound 10 µM
[7] = second compound 0.0316 µM, first compound 0.0316 µM
[8] = second compound 0.0316 µM, first compound 0.1 µM
[9] = second compound 0.0316 µM, first compound 0.316 µM
[10] = second compound 0.0316 µM, first compound 1 µM
[11] = second compound 0.0316 µM, first compound 3.16 µM
[12] = second compound 0.0316 µM, first compound 10 µM
[13] = second compound 0.1 µM, first compound 0.0316 µM
[14] = second compound 0.1 µM, first compound 0.1 µM
[15] = second compound 0.1 µM, first compound 0.316 µM
[16] = second compound 0.1 µM, first compound 1 µM
[17] = second compound 0.1 µM, first compound 3.16 µM
[18] = second compound 0.1 µM, first compound 10 µM
[19] = second compound 0.316 µM, first compound 0.0316 µM
[20] = second compound 0.316 µM, first compound 0.1 µM
[21] = second compound 0.316 µM, first compound 0.316 µM
[22] = second compound 0.316 µM, first compound 1 µM
[23] = second compound 0.316 µM, first compound 3.16 µM
[24] = second compound 0.316 µM, first compound 10 µM
[25] = second compound 1 µM, first compound 0.0316 µM
[26] = second compound 1 µM, first compound 0.1 µM
[27] = second compound 1 µM, first compound 0.316 µM
[28] = second compound 1 µM, first compound 1 µM
[29] = second compound 1 µM, first compound 3.16 µM
[30] = second compound 1 µM, first compound 10 µM
[31] = second compound 3.16 µM, first compound 0.0316 µM
[32] = second compound 3.16 µM, first compound 0.1 µM
[33] = second compound 3.16 µM, first compound 0.316 µM
[34] = second compound 3.16 µM, first compound 1 µM
[35] = second compound 3.16 µM, first compound 3.16 µM
[36] = second compound 3.16 µM, first compound 10 µM
[37] = second compound 10 µM, first compound 0.0316 µM
[38] = second compound 10 µM, first compound 0.1 µM
[39] = second compound 10 µM, first compound 0.316 µM
[40] = second compound 10 µM, first compound 1 µM
[41] = second compound 10 µM, first compound 3.16 µM
[42] = second compound 10 µM, first compound 10 µM
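Further: spheroids exposed to the agents for 7 days before readout.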

`C=CC(=O)N1CCN(c2nc(=O)n(-c3c(C)ccnc3C(C)C)c3nc(-c4c(O)cccc4F)c(F)cc23)C(C)C1` (stereo not drawn) + CN1CCN(c2cc(C(=O)Nc3cc4cc(-c5cnn(C)c5)ccc4cn3)ccn2)CC1 was tested, and the pIC50 [1] was < 5.00, the pIC50 [2] was < 5.00 and the pIC50 [3] was 7.36. For the same compound, the pIC50 [4] was > 7.50, the pIC50 [5] was > 7.50 and the pIC50 [6] was > 7.50. The viability, T/C [7] was 121%, the viability, T/C [8] was 123% and the viability, T/C [9] was 132%. It also gave a viability, T/C [10] of 116%, a viability, T/C [11] of 112% and a viability, T/C [12] of 112%. It also gave a viability, T/C [13] of 105%, a viability, T/C [14] of 98.6% and a viability, T/C [15] of 114%. The viability, T/C [16] was 91.6%, the viability, T/C [17] was 106% and the viability, T/C [18] was 90.1%. It also gave a viability, T/C [19] of 50.9%, a viability, T/C [20] of 48.5% and a viability, T/C [21] of 43.5%. For the same compound, the viability, T/C [22] was 37.8%, the viability, T/C [23] was 41.4% and the viability, T/C [24] was 47.4%. The viability, T/C [25] was 0.19%, the viability, T/C [26] was 0.68% and the viability, T/C [27] was 0.16%. For the same compound, the viability, T/C [28] was 0.93%, the viability, T/C [29] was 0.13% and the viability, T/C [30] was 0.12%. The viability, T/C [31] was 0.13%, the viability, T/C [32] was 0.17% and the viability, T/C [33] was 1.53%. The viability, T/C [34] was 0.1%, the viability, T/C [35] was 0.14% and the viability, T/C [36] was 1.14%. It also gave a viability, T/C [37] of 0.16%, a viability, T/C [38] of 0.18% and a viability, T/C [39] of 0.17%. The viability, T/C [40] was 0.15%, the viability, T/C [41] was 0.79% and the viability, T/C [42] was 0.2%.
In the case of `CC1COCCN1c1cc(C2(S(C)(=N)=O)CC2)nc(-c2ccnc3[nH]ccc23)n1` (stereo not drawn), the viability, T/C (compound 0.0316 µM) was 101% and 91.8%, the viability, T/C (compound 0.1 µM) was 118% and 86.8% and the viability, T/C (compound 0.316 µM) was 130% and 91.7%. The viability, T/C (compound 1 µM) was 90.4% and 102%, the viability, T/C (compound 3.16 µM) was 108% and 94.2% and the viability, T/C (compound 10 µM) was 68.6% and 78.2%. The pIC50 (curve of compound) was < 5.00.
In the case of `CC(CO)NC(=O)c1cc(-c2ccc(Cl)cc2)nn(-c2cnn(C)c2)c1=O` (stereo not drawn) + CN1CCN(c2cc(C(=O)Nc3cc4cc(-c5cnn(C)c5)ccc4cn3)ccn2)CC1, the pIC50 [1] was < 5.00, the pIC50 [2] was < 5.00 and the pIC50 [3] was > 7.50. For the same compound, the pIC50 [4] was > 7.50, the pIC50 [5] was > 7.50 and the pIC50 [6] was > 7.50. It also gave a viability, T/C [7] of 119%, a viability, T/C [8] of 98.2% and a viability, T/C [9] of 93.1%. For the same compound, the viability, T/C [10] was 98%, the viability, T/C [11] was 84.8% and the viability, T/C [12] was 96%. It also gave a viability, T/C [13] of 95.2%, a viability, T/C [14] of 77.1% and a viability, T/C [15] of 80.8%. The viability, T/C [16] was 69.5%, the viability, T/C [17] was 77.2% and the viability, T/C [18] was 72.1%. It also gave a viability, T/C [19] of 47.6%, a viability, T/C [20] of 49.6% and a viability, T/C [21] of 40%. It also gave a viability, T/C [22] of 33.6%, a viability, T/C [23] of 35.3% and a viability, T/C [24] of 35.9%. For the same compound, the viability, T/C [25] was 0.14%, the viability, T/C [26] was 0.16% and the viability, T/C [27] was 0.16%. The viability, T/C [28] was 0.12%, the viability, T/C [29] was 0.98% and the viability, T/C [30] was 1.3%. The viability, T/C [31] was 0.15%, the viability, T/C [32] was 0.63% and the viability, T/C [33] was 0.87%. The viability, T/C [34] was 1.29%, the viability, T/C [35] was 1.41% and the viability, T/C [36] was 0.14%. For the same compound, the viability, T/C [37] was 0.2%, the viability, T/C [38] was 0.21% and the viability, T/C [39] was 2%. It also gave a viability, T/C [40] of 0.26%, a viability, T/C [41] of 0.7% and a viability, T/C [42] of 1.23%.
`COc1ccc([C@@H](O)c2cc(-c3ncnc4cc(N5CCOCC5)ccc34)c(F)cc2Cl)nn1` was tested, and the viability, T/C (compound 0.0316 µM) was 87.2% and 87.1%, the viability, T/C (compound 0.1 µM) was 104% and 94.9% and the viability, T/C (compound 0.316 µM) was 87.7% and 98.9%. The viability, T/C (compound 1 µM) was 113% and 98.2%, the viability, T/C (compound 3.16 µM) was 85.8% and 117% and the viability, T/C (compound 10 µM) was 82.8% and 89.9%. For the same compound, the pIC50 (curve of compound) was < 5.00.
